Measurements reported in patent publication US8415339B2, “Bactericidal anti-MRSA active pharmaceutical composition containing carbapenems” (priority 2007, dated 2013).
Where “and” joins values, the source holds several entries; their conditions need not be identical. Equal entries are not always repeated.

Assays:
MRSA 7268/02 [1] = experiment: Minimal inhibitory concentration, agar dilution; format: cell-based, Staph. aureus; conditions: Difco Nutrient Agar, 20 hrs at 37° C., combinations as a + b; for MIC: Staphylococcus aureus, MRSA
Procedure: (§1) Minimal inhibitory concentrations were determined using Difco Nutrient Agar. Appropriate volumes of 0.1% aqueous solutions of antibiotics were added into sterile dishes (8.5 cm) in twofold dilutions and mixed with 10 ml of sterile liquid agar of 50° C. The solid agar was inoculated with 3 μl of an 0.5 McFarland bacterial solution in Difco Nutrient Broth, corresponding to approx. 10^5 colony forming units. Bacterial growth was recorded after 20 hrs of incubation at 37° C.

Staph. Innsbruck [2] = experiment: Minimal inhibitory concentration, agar dilution; format: cell-based, Staph. aureus; conditions: Difco Nutrient Agar, 20 hrs at 37° C., combinations as a + b; for MIC: Staphylococcus aureus
Procedure: as §1

MRSA 7268/02 [3] = experiment: Agar diffusion (plate/disk) test, inhibition zone; format: cell-based, Staph. aureus; conditions: 20 hrs at 37° C.; for zone of inhibition at 10 µg/disc: Staphylococcus aureus, MRSA, 20 h, read-out: Diameter of inhibition zone
Procedure: (§2) Inhibition zone diameters were determined on Difco Nutrient Agar (10 ml) in sterile dishes (8.5 cm) using ca. 10^6-10^7 colony forming units. 0.2 ml of a bacterial suspension (overnight culture in Difco Nutrient Broth) was mixed at 52° C. with the sterile liquid agar. It solidified at room temperature. Sterile filter disks (6 mm) were placed on the agar surface. Appropriate volumes of a 0.2% aqueous solutions of antibiotics were transferred to the disks by a precision syringe. Alternatively, commercial impregnated disks (Oxoid) were used.
(§3) The inhibition zone diameter was measured after 20 hrs at 37° C. For determination of bactericidal activity, incubation at 37° C. was continued for additional 40 hrs. A clear inhibition zone after additional incubation indicated bactericidity (B).

Staph. Innsbruck [4] = experiment: Agar diffusion (plate/disk) test, inhibition zone; format: cell-based, Staph. aureus; conditions: 20 hrs at 37° C.; for zone of inhibition at 10 µg/disc: Staphylococcus aureus, 20 h, read-out: Diameter of inhibition zone
Procedure: as §2, §3

MRSA 7268/02 [5] = experiment: Time dependent counting of colony forming units (cfu); format: cell-based, Staph. aureus
MRSA München 12797 = experiment: Mouse septicaemia test; format: in vivo; conditions: s. c., at 1 hr and 4 hr after i.v. infection, observed 10 days
Procedure: In vivo activity was determined by a mouse septicaemia test using immunocompetent animals of 30 g weight (6 animals per group). Infection was performed with MRSA München 12797 at a concentration of approx. 2×10^9 cfu/mouse by the i.v. route (lethal dose). Therapy was performed at daily doses from 5+5 to 75+75 mg/kg by s. c. route (equivalent amounts at time 1 hr and 4 hr after infection).

[6] = single antibiotic 30 μg per disk
[7] = carbapenem alone 10 μg per disk

SMILES | Diameter of inhibition zone (MRSA 7268/02 [3]; [6]) | Diameter of inhibition zone (Staph. Innsbruck [4]; [6]) | other results
CC1(C)S[C@@H]2[C@H](NC(=O)[C@H](N)c3ccc(O)cc3)C(=O)N2[C@H]1C(=O)O [Amoxicillin] | 0 mm | 10 mm | MIC (MRSA 7268/02 [1]): 32 µg/mL; MIC (Staph. Innsbruck [2]): 64 µg/mL
CC1(C)S[C@@H]2[C@H](NC(=O)[C@H](N)c3ccccc3)C(=O)N2[C@H]1C(=O)O [Ampicillin] | 12 mm | 12 mm | 
CC1(C)S[C@@H]2[C@H](NC(=O)C(C(=O)O)c3ccccc3)C(=O)N2[C@H]1C(=O)O (stereo partly shown) [Carbenicillin] | 0 mm |  | 
N[C@@H](C(=O)N[C@@H]1C(=O)N2C(C(=O)O)=C(Cl)CS[C@H]12)c1ccccc1 [Cefaclor] | 11 mm |  | 
Cc1nnc(SCC2=C(C(=O)O)N3C(=O)[C@@H](NC(=O)Cn4cnnn4)[C@H]3SC2)s1 [Cefazolin] | 0 mm | 0 mm | 
C=CC1=C(C(=O)O)N2C(=O)[C@@H](NC(=O)/C(=N\O)c3csc(N)n3)[C@H]2SC1 [Cefdinir] | 0 mm |  | 
C=CC1=C(C(=O)O)N2C(=O)[C@@H](NC(=O)/C(=N\OCC(=O)O)c3csc(N)n3)[C@H]2SC1 [Cefixim] |  | 0 mm | 
CCN1CCN(C(=O)N[C@@H](C(=O)N[C@@H]2C(=O)N3C(C(=O)O)=C(CSc4nnnn4C)CS[C@H]23)c2ccc(O)cc2)C(=O)C1=O [Cefoperazone] | 9 mm |  | 
CO/N=C(\C(=O)N[C@@H]1C(=O)N2C(C(=O)O)=C(COC(C)=O)CS[C@H]12)c1csc(N)n1 [Cefotaxime] | 0 mm | 0 mm | 
CN(C)CCn1nnnc1SCC1=C(C(=O)O)N2C(=O)[C@@H](NC(=O)Cc3csc(N)n3)[C@H]2SC1 [Cefotiam] |  | 0 mm | 
CO[C@@]1(NC(=O)Cc2cccs2)C(=O)N2C(C(=O)O)=C(COC(N)=O)CS[C@@H]21 [Cefoxitin] | 0 mm | 11 mm | MIC (Staph. Innsbruck [2]): 32 µg/mL
NC(=O)c1cc[n+](CC2=C(C(=O)[O-])N3C(=O)[C@@H](NC(=O)[C@@H](c4ccccc4)S(=O)(=O)O)[C@H]3SC2)cc1 [Cefsudolin] | 0 mm | 0 mm | 
CO/N=C(\C(=O)N[C@@H]1C(=O)N2C(C(=O)O)=C(CSc3nc(=O)c(=O)[nH]n3C)CS[C@H]12)c1csc(N)n1 [Ceftriaxon] | 0 mm | 0 mm | 
CO/N=C(\C(=O)N[C@@H]1C(=O)N2C(C(=O)O)=C(COC(N)=O)CS[C@H]12)c1ccco1 [Cefuroxim] | 0 mm |  | 
CC(=O)OCC1=C(C(=O)O)N2C(=O)[C@@H](NC(=O)Cc3cccs3)[C@H]2SC1 [Cephalothin] | 0 mm |  | 
Cc1onc(-c2ccccc2Cl)c1C(=O)N[C@@H]1C(=O)N2[C@@H]1SC(C)(C)[C@@H]2C(=O)O [Cloxacillin] | 0 mm | 0 mm | 
Cc1onc(-c2c(Cl)cccc2Cl)c1C(=O)N[C@@H]1C(=O)N2[C@@H]1SC(C)(C)[C@@H]2C(=O)O [Dicloxacillin] | 0 mm | 0 mm | 
CC1(C)S[C@@H]2[C@H](NC(=O)[C@H](N)C3=CCC=CC3)C(=O)N2[C@H]1C(=O)O [Epicillin] | 14 mm and 12 mm | 10 mm and 14 mm and 12 mm | Minimal Inhibitory concentration (MRSA 7268/02 [1]): 32 µg/mL; Minimal Inhibitory concentration (Staph. Innsbruck [2]): 32 µg/mL; Reduction of cfu's, substance used alone (MRSA 7268/02 [5]): Neither epicillin, nor linezolide showed any significant reduction of cfu's
C[C@@H](O)[C@H]1C(=O)N2C(C(=O)O)=C(S[C@@H]3CN[C@H](C(=O)Nc4cccc(C(=O)O)c4)C3)[C@H](C)[C@H]12 [Ertapenem] |  |  | zone of inhibition at 10 µg/disc (MRSA 7268/02 [3]; [7]): 0 mm; zone of inhibition at 10 µg/disc (Staph. Innsbruck [4]; [7]): 0 mm
COCSC1=C(C(=O)[O-])N2C(=O)[C@H]([C@@H](C)O)[C@H]2[C@H]1C.[K+] [GH 478, Potassium (1R,5S,6S)-6-[(R)-1-hydroxyethyl]-2-methoxymethylthio-1-methylcarbapen-2-em-3-carboxylate] |  |  | Diameter of inhibition zone (Staph. Innsbruck [4]; [7]): 0 mm
CC(=O)NCSC1=C(C(=O)[O-])N2C(=O)[C@H]([C@@H](C)O)[C@H]2[C@H]1C.[K+] [GH 519, Potassium (1R,5S,6S)-2-[(N-acetylamino)methylthio]-6-[(R)-1-hydroxyethyl]-1-methyl-carbapenen-2-em-3-carboxylate] |  |  | Diameter of inhibition zone (MRSA 7268/02 [3]; [7]): 0 mm; Diameter of inhibition zone (Staph. Innsbruck [4]; [7]): 0 mm
C[C@@H](O)[C@H]1C(=O)N2C(C(=O)O)=C(SCOCCN)[C@H](C)[C@H]12 [GH 570, (1R,5S,6S)-2-[(2-Aminoethyl)oxy]metlhylthio-6-[(R)-1-hydroxyethyl]-1-methylcarbapen-2-em-3-carboxylic acid] |  |  | Diameter of inhibition zone (MRSA 7268/02 [3]; [7]): 0 mm; Diameter of inhibition zone (Staph. Innsbruck [4]; [7]): 0 mm
C[C@@H](O)[C@H]1C(=O)N2C(C(=O)O)=C(SCCN=CN)C[C@H]12 [Imipenem] |  |  | zone of inhibition at 10 µg/disc (MRSA 7268/02 [3]; [7]): 8 mm; zone of inhibition at 10 µg/disc (Staph. Innsbruck [4]; [7]): 8 mm
C[C@@H](O)[C@H]1C(=O)N2C(C(=O)O)=C(S[C@@H]3CN[C@H](C(=O)N(C)C)C3)[C@H](C)[C@H]12 [Meropenem] |  |  | MIC (MRSA 7268/02 [1]): 16 µg/mL; MIC (Staph. Innsbruck [2]): 32 µg/mL; Bactericidal effect compared with epicillin/meropenem 2+2 μg/ml (MRSA 7268/02 [5]; 4 μg/ml alone): less bactericidal than the epicillin/meropenem composition at 2+2 μg/ml; ED90 (MRSA München 12797): > 75+75 mg/kg; zone of inhibition at 10 µg/disc (MRSA 7268/02 [3]; [7]): 13 mm; zone of inhibition at 10 µg/disc (Staph. Innsbruck [4]; [7]): 14 mm
COc1cccc(OC)c1C(=O)N[C@@H]1C(=O)N2[C@@H]1SC(C)(C)[C@@H]2C(=O)O [Methicillin] |  | 0 mm | 
CO[C@@]1(NC(=O)C(C(=O)O)c2ccc(O)cc2)C(=O)N2C(C(=O)O)=C(CSc3nnnn3C)CO[C@@H]21 (stereo partly shown) [Moxalactam] |  | 8 mm | 
Cc1onc(-c2ccccc2)c1C(=O)N[C@@H]1C(=O)N2[C@@H]1SC(C)(C)[C@@H]2C(=O)O [Oxacillin] | 0 mm | 0 mm | 
CCN1CCN(C(=O)N[C@@H](C(=O)N[C@@H]2C(=O)N3[C@@H]2SC(C)(C)[C@@H]3C(=O)O)c2ccccc2)C(=O)C1=O [Piperacillin] | 0 mm | 0 mm | 
CN[C@H](CC(C)C)C(=O)N[C@H]1C(=O)N[C@@H](CC(N)=O)C(=O)N[C@H]2C(=O)N[C@H]3C(=O)N[C@H](C(=O)N[C@H](C(=O)O)c4cc(O)cc(O)c4-c4cc3ccc4O)[C@H](O)c3ccc(c(Cl)c3)Oc3cc2cc(c3O[C@@H]2O[C@H](CO)[C@@H](O)[C@H](O)[C@H]2O[C@H]2C[C@](C)(N)[C@H](O)[C@H](C)O2)Oc2ccc(cc2Cl)[C@H]1O [Vancomycin] | 19 mm | 20 mm | 
CC(=O)NC[C@H]1CN(c2ccc(N3CCOCC3)c(F)c2)C(=O)O1 [linezolide] |  |  | Reduction of cfu's, substance used alone (MRSA 7268/02 [5]): Neither epicillin, nor linezolide showed any significant reduction of cfu's
